Results as given in US11058707B2, “Methods for treating ischemic heart disease by targeting TRPV4” (Northeast Ohio Medical University, priority 2018, dated 2021).

How the values were obtained:
[1] = test system: human ventricular fibroblasts; experiment: TGF-b1-induced differentiation of human ventricular fibroblasts to myofibroblasts (immunofluorescence, α-SMA); type: cell-based; conditions: AB1+TGFβ1 vs TGFβ1; immunofluorescence actin/α-SMA/DAPI (FIG. 5A-5C)
[2] = test system: WT mice subjected to MI; experiment: Myocardial infarction (LAD ligation) in WT mice treated orally with TRPV4 antagonist; echocardiography and histology; type: in vivo
Method: WT mice were subjected to MI by ligating LAD. MI mice were then given orally a specific TRPV4 antagonist, GSK2193874 (GSK2) (10 mg/Kg/day) or vehicle (0.01% DMSO/water).
Orally active TRPV4 antagonist GSK2193874 was given immediately after MI surgery and followed for 5 weeks.

[3] = given immediately after MI surgery, followed for 5 weeks, vs WT or vehicle treated mice

SMILES | TGF-b1-induced differentiation of human ventricular fibroblasts [1] | cardiac fibrosis (Masson's trichrome staining) at the infarct zone and remote zone ([2]; GSK2 treated-MI hearts vs Vehicle treated-MI hearts (FIG. 16)) | ejection fraction [2, 3] | fractional shortening [2, 3] | cardiac function: ejection fraction ([2]; post-MI WT mice, 10 mg/Kg/day orally vs vehicle (0.01% DMSO/water), echocardiography (FIG. 11A)) | cardiac function: fractional shortening ([2]; post-MI WT mice, 10 mg/Kg/day orally vs vehicle (0.01% DMSO/water), echocardiography (FIG. 11B))
CC(C)NCCN(C(C)C)S(=O)(=O)c1ccc(Cl)cc1Cl [AB159908, 2,4-dichloro-N-isopropyl-N-(2-isopropylaminoethyl)benzenesulfonamide] | attenuation | – | – | – | – | –
O=C(NC1(c2ccccc2)CC1)c1c(CN2CCC(N3CCCCC3)CC2)c(-c2cccc(C(F)(F)F)c2)nc2cc(Br)ccc12 [GSK2193874, 3-([1,4′-bipiperidin]-1′-ylmethyl)-7-bromo-N-(1-phenylcyclopropyl)-2-[3-(trifluoromethyl)phenyl]-4-quinolinecarboxamide] | – | significantly reduced | preserved | preserved | preserved | preserved
